Experimental data from patent publication US10130590B2, “Methods of treating cancer with atovaquone-related compounds” (DANA-FARBER CANCER INSTITUTE, INC., priority 2013, dated 2018).

What was measured:
K562 and U266 cells = test: Gene expression microarrays and qRT-PCR for atovaquone-induced genes; format: cell-based
Method: Gene expression was analyzed in triplicate, normalized by 18S rRNA, and expressed as mean±SEM. For gene expression microarrays, RNA was isolated by Trizol, purified further on RNeasy columns, and profiled using Affymetrix Human Gene 1.0 ST arrays (Affymetrix). Results were deposited under GEO Accession: GSE46575.
To discover the gene whose induction by atovaquone was responsible for mTOR inhibition, gene expression microarrays were performed in K562 and U266 cells. It was reasoned that induction of the causative factor must be common to all cell lines in which atovaquone inhibits the mTOR pathway. […] Of these, REDD1 is a known negative regulator of mTOR, whose activity is dependent on the TSC1/2-complex.

[1] = tested on: INA-6, U266 and HEL cells; test: Annexin V/PI flow cytometry in STAT3-dependent cancer cells; format: cell-based; details: INA-6 15 μM 24 hours; U266 and HEL 20 μM 48 hours
Method: Annexin V/PI staining was performed using Annexin V:FITC Apoptosis Detection Kit I (BD Biosciences). Staining for cell cycle analysis was performed as previously described (267). Staining for cell-surface receptors was performed in 50 μl PBS+2% FBS with 2 μl antibody to IL6R (BioLegend #352803) or 5 μl antibody to gp130 (BD Biosciences #555757) for 20 minutes on ice in the dark. Cells were washed twice, then resuspended in 300 μl of the same buffer. Samples were analyzed on a BD FACSCanto II machine. Transfection and siRNA Cells were reverse-transfected using Lipofectamine RNAiMAX (Invitrogen); the culture medium was changed 24 hours later. Control siRNA (D-001210-02) and REDD1 siRNA (M-010855-01) were from Thermo Scientific Dharmacon.
Next, the effect of atovaquone on the growth and survival of STAT3-dependent cancer cells was examined Survival of the multiple myeloma cell line INA-6 is exquisitely dependent on IL-6 added to culture medium and resultant STAT3 activation. […] The other cell lines with constitutively-active STAT3, U266 and HEL, were also killed by atovaquone.

INA-6 cells = test: Cell viability (Cell Titer Glo), INA-6; format: cell-based; details: 72 hours
Method: Western blotting was performed as previously described (Battle T E, Arbiser J, & Frank D A (2005) The natural product honokiol induces caspase dependent apoptosis in B-cell chronic lymphocytic leukemia (B-CLL) cells. Blood 106(2):690-697). Antibodies to phospho-MAPK (9101), total MAPK (9102), phospho-Y705 STAT3 (9131), phospho-S6 (2215), total S6 (2217), phospho-4E-BP1 (9451), total 4E-BP1 (9644), total RSK (9355), phospho-S6K (9234, 85 used at 1:5000), total S6K (2708), phospho-eIF2α (9721, used at 1:1000), total eIF2α (5324), ATF4 (11815, used at 1:1000), PDGFRβ (3169), IGF1Rβ (9750), EGFR (2232), and HER2 (2242) were from Cell Signaling Technology. Phospho-RSK antibody was from R&D (AF889). Antibodies to total STAT3 (sc-482) and gp130 (sc-656, used at 1:1000) were from Santa Cruz Biotechnology. Phospho-S727 STAT3 antibody was described previously (229). REDD1 antibody was from Proteintech (10638-1-AP, used at 1:1000). Antibody recognizing full-length and cleaved ATF6 was from Abcam (ab122897, used at 1:1000). Antibodies to tubulin (T5168) and beta actin (A5316) were from Sigma. All antibodies were used at 1:10000 dilution for western blot unless otherwise noted. […] Cell viability was measured as ATP-dependent luminescence by Cell Titer Glo (Promega). […]

NF-κB = NF-κB cell-based reporter system
Method: To determine if atovaquone inhibits STAT3, it was tested in a cell-based reporter system of STAT3 transcriptional activity (Nelson E A, et al. (2008) Nifuroxazide inhibits survival of multiple myeloma cells by directly inhibiting STAT3. Blood 112(13):5095-5102). These cells lack basal STAT3 activation; upon IL-6 treatment, STAT3 becomes activated and drives transcription of a STAT3-dependent luciferase reporter gene. The STAT3-luc reporter cells were pre-treated with drug for 1 hour, then stimulated with IL-6 (10 ng/ml) for 5 hr. Activity of firefly luciferase was measured and normalized by cell viability (Cell Titer Glo). […] To determine if atovaquone inhibits STAT3 activity specifically over other transcription factors, it was tested in cell-based reporter systems for STAT1 and STAT5, two other STAT family members, and NF-κB, an unrelated transcription factor.

[2] = tested on: PDGFR-β, EGFR, HER2, and IGF1R-β; test: Western blot of other receptors; format: cell-based; details: MEF, MDA-MB-468, SKBR3; 25 μM, 6 or 12 hours
Method: Western blotting was performed as previously described (Battle T E, Arbiser J, & Frank D A (2005) The natural product honokiol induces caspase dependent apoptosis in B-cell chronic lymphocytic leukemia (B-CLL) cells. Blood 106(2):690-697). Antibodies to phospho-MAPK (9101), total MAPK (9102), phospho-Y705 STAT3 (9131), phospho-S6 (2215), total S6 (2217), phospho-4E-BP1 (9451), total 4E-BP1 (9644), total RSK (9355), phospho-S6K (9234, 85 used at 1:5000), total S6K (2708), phospho-eIF2α (9721, used at 1:1000), total eIF2α (5324), ATF4 (11815, used at 1:1000), PDGFRβ (3169), IGF1Rβ (9750), EGFR (2232), and HER2 (2242) were from Cell Signaling Technology. Phospho-RSK antibody was from R&D (AF889). Antibodies to total STAT3 (sc-482) and gp130 (sc-656, used at 1:1000) were from Santa Cruz Biotechnology. Phospho-S727 STAT3 antibody was described previously (229). REDD1 antibody was from Proteintech (10638-1-AP, used at 1:1000). Antibody recognizing full-length and cleaved ATF6 was from Abcam (ab122897, used at 1:1000). Antibodies to tubulin (T5168) and beta actin (A5316) were from Sigma. […] Cell viability was measured as ATP-dependent luminescence by Cell Titer Glo (Promega).
MEF, MDA-MB-468, and SKBR3 cells were treated with atovaquone (25 μM) for 6 or 12 hours, then analyzed by Western blot for expression of gp130 and various other receptors. […]

O=C1C(O)=C([C@H]2CC[C@H](c3ccc(Cl)cc3)CC2)C(=O)c2ccccc21 [atovaquone, trans-2-[4-(4-chlorophenyl)cyclohexyl]-3-hydroxy-1,4-naphthalenedione]
REDD1 expression (K562 and U266 cells): inducing the expression of REDD1 | apoptosis (annexin V and PI staining) [1]: inducing apoptotic cell death | viability of INA-6 cells at higher doses (INA-6 cells): complete loss of viability | IC50 (INA-6 cells; INA-6): 11.9 µM | NF-κB transcription factor activity (NF-κB): modestly affected at the higher doses | levels of other receptors (PDGFR-β, EGFR, HER2, IGF1R-β) [2]: not affected
